Results taken from the supplement of paper PMC8612539.
≈ marks a conversion by molar mass, not a printed value.

Tested on: Pasteurella multocida
Experiment: minimum inhibitory concentration (MIC)
Protocol: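 Broth microdilution MIC (Sensititre BOPO7F bovine plate, CLSI methods) of 19 antimicrobials against field isolates of P. multocida, M. haemolytica, H. somni (deep nasopharyngeal swabs) and E. coli, Enterococcus spp. (rectal swabs) from weaned dairy heifers. Incubation 16-24 h at 35 C. MIC is the lowest concentration preventing visible growth. Values with <= or > lie at the tested range limits. Trimethoprim-sulfamethoxazole is given as the trimethoprim component of a 1:19 mixture.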

CC[C@H]1OC(=O)C[C@@H](O)[C@H](C)[C@@H](O[C@@H]2O[C@H](C)[C@@H](O)[C@H](N(C)C)[C@H]2O)[C@@H](CCN2C[C@H](C)C[C@H](C)C2)C[C@@H](C)C(=O)/C=C/C(C)=C/[C@@H]1CO[C@@H]1O[C@H](C)[C@@H](O)[C@@H](OC)[C@H]1OC [Tilmicosin]
Details | minimum inhibitory concentration [µg/mL]
isolate (source animal id): 10 | > 16
isolate (source animal id): 11 | > 16
isolate (source animal id): 12 | > 16
isolate (source animal id): 19 | > 16
isolate (source animal id): 23 | > 16
isolate (source animal id): 26 | > 16
isolate (source animal id): 98 | > 16
isolate (source animal id): 104 | > 16
isolate (source animal id): 115 | > 16
isolate (source animal id): 117 | > 16
isolate (source animal id): 118 | > 16
isolate (source animal id): 121 | > 16
isolate (source animal id): 124 | > 16
isolate (source animal id): 125 | > 16
isolate (source animal id): 128 | > 16
isolate (source animal id): 131 | > 16
isolate (source animal id): 135 | > 16
isolate (source animal id): 136 | > 16
isolate (source animal id): 140 | > 16
isolate (source animal id): 144 | > 16
isolate (source animal id): 146 | > 16
isolate (source animal id): 150 | > 16
isolate (source animal id): 151 | > 16
isolate (source animal id): 153 | > 16
isolate (source animal id): 155 | > 16
isolate (source animal id): 157 | 16 (≈ 18.4 µM)
isolate (source animal id): 160 | > 16
isolate (source animal id): 164 | > 16
isolate (source animal id): 165 | > 16
isolate (source animal id): 167 | 8 (≈ 9.2 µM)
isolate (source animal id): 168 | > 16
isolate (source animal id): 169 | 4 (≈ 4.6 µM)
isolate (source animal id): 170 | 16 (≈ 18.4 µM)
isolate (source animal id): 171 | 8 (≈ 9.2 µM)
isolate (source animal id): 172 | 8 (≈ 9.2 µM)
isolate (source animal id): 173 | > 16
isolate (source animal id): 174 | 8 (≈ 9.2 µM)
isolate (source animal id): 175 | 8 (≈ 9.2 µM)
isolate (source animal id): 176 | 8 (≈ 9.2 µM)
isolate (source animal id): 177 | 8 (≈ 9.2 µM)
isolate (source animal id): 178 | 4 (≈ 4.6 µM)
isolate (source animal id): 179 | 4 (≈ 4.6 µM)
isolate (source animal id): 182 | 16 (≈ 18.4 µM)
isolate (source animal id): 192 | 4 (≈ 4.6 µM)
isolate (source animal id): 193 | 8 (≈ 9.2 µM)
isolate (source animal id): 195 | 8 (≈ 9.2 µM)
isolate (source animal id): 196 | 8 (≈ 9.2 µM)
isolate (source animal id): 197 | 16 (≈ 18.4 µM)
isolate (source animal id): 198 | > 16
isolate (source animal id): 199 | 8 (≈ 9.2 µM)
isolate (source animal id): 200 | 4 (≈ 4.6 µM)
isolate (source animal id): 201 | 8 (≈ 9.2 µM)
isolate (source animal id): 203 | 4 (≈ 4.6 µM)
isolate (source animal id): 204 | 8 (≈ 9.2 µM)
isolate (source animal id): 205 | > 16
isolate (source animal id): 206 | 8 (≈ 9.2 µM)
isolate (source animal id): 207 | 8 (≈ 9.2 µM)
isolate (source animal id): 208 | 4 (≈ 4.6 µM)
isolate (source animal id): 209 | 4 (≈ 4.6 µM)
isolate (source animal id): 210 | > 16
isolate (source animal id): 213 | 8 (≈ 9.2 µM)
isolate (source animal id): 216 | 8 (≈ 9.2 µM)
isolate (source animal id): 223 | > 16
isolate (source animal id): 227 | 4 (≈ 4.6 µM)
isolate (source animal id): 229 | > 16
isolate (source animal id): 233 | > 16
isolate (source animal id): 234 | > 16
isolate (source animal id): 237 | > 16
isolate (source animal id): 241 | > 16
isolate (source animal id): 245 | > 16
isolate (source animal id): 247 | > 16
isolate (source animal id): 250 | > 16
isolate (source animal id): 254 | > 16
isolate (source animal id): 255 | > 16
isolate (source animal id): 258 | 8 (≈ 9.2 µM)
isolate (source animal id): 261 | > 16
isolate (source animal id): 262 | > 16
isolate (source animal id): 269 | 8 (≈ 9.2 µM)
isolate (source animal id): 270 | > 16
isolate (source animal id): 274 | > 16
isolate (source animal id): 275 | > 16
isolate (source animal id): 276 | > 16
isolate (source animal id): 277 | 8 (≈ 9.2 µM)
isolate (source animal id): 278 | > 16
isolate (source animal id): 279 | > 16
isolate (source animal id): 280 | > 16
isolate (source animal id): 284 | > 16
isolate (source animal id): 285 | > 16
isolate (source animal id): 287 | > 16
isolate (source animal id): 290 | > 16
isolate (source animal id): 294 | > 16
isolate (source animal id): 295 | > 16
isolate (source animal id): 296 | > 16
isolate (source animal id): 307 | > 16
isolate (source animal id): 310 | > 16
isolate (source animal id): 311 | > 16
isolate (source animal id): 312 | > 16
isolate (source animal id): 313 | > 16
isolate (source animal id): 315 | > 16
isolate (source animal id): 316 | > 16

CCCNC[C@]1(O)[C@H](C)O[C@@H](O[C@H]2[C@H](C)[C@@H](O[C@@H]3O[C@H](C)C[C@H](N(C)C)[C@H]3O)[C@](C)(O)C[C@@H](C)CN[C@H](C)[C@@H](O)[C@](C)(O)[C@@H](CC)OC(=O)[C@@H]2C)C[C@@]1(C)OC [Tulathromycin]
Details | minimum inhibitory concentration [µg/mL]
isolate (source animal id): 10 | ≤ 8
isolate (source animal id): 11 | 32 (≈ 39.7 µM)
isolate (source animal id): 12 | 32 (≈ 39.7 µM)
isolate (source animal id): 19 | 32 (≈ 39.7 µM)
isolate (source animal id): 23 | 16 (≈ 19.8 µM)
isolate (source animal id): 26 | ≤ 8
isolate (source animal id): 98 | ≤ 8
isolate (source animal id): 104 | > 64
isolate (source animal id): 115 | 32 (≈ 39.7 µM)
isolate (source animal id): 117 | ≤ 8
isolate (source animal id): 118 | 16 (≈ 19.8 µM)
isolate (source animal id): 121 | 32 (≈ 39.7 µM)
isolate (source animal id): 124 | ≤ 8
isolate (source animal id): 125 | ≤ 8
isolate (source animal id): 128 | 32 (≈ 39.7 µM)
isolate (source animal id): 131 | > 64
isolate (source animal id): 135 | > 64
isolate (source animal id): 136 | 32 (≈ 39.7 µM)
isolate (source animal id): 140 | 16 (≈ 19.8 µM)
isolate (source animal id): 144 | 16 (≈ 19.8 µM)
isolate (source animal id): 146 | 16 (≈ 19.8 µM)
isolate (source animal id): 150 | 64 (≈ 79.4 µM)
isolate (source animal id): 151 | 64 (≈ 79.4 µM)
isolate (source animal id): 153 | 16 (≈ 19.8 µM)
isolate (source animal id): 155 | ≤ 8
isolate (source animal id): 157 | ≤ 8
isolate (source animal id): 160 | 64 (≈ 79.4 µM)
isolate (source animal id): 164 | 64 (≈ 79.4 µM)
isolate (source animal id): 165 | 64 (≈ 79.4 µM)
isolate (source animal id): 167 | ≤ 8
isolate (source animal id): 168 | ≤ 8
isolate (source animal id): 169 | ≤ 8
isolate (source animal id): 170 | ≤ 8
isolate (source animal id): 171 | ≤ 8
isolate (source animal id): 172 | ≤ 8
isolate (source animal id): 173 | 16 (≈ 19.8 µM)
isolate (source animal id): 174 | ≤ 8
isolate (source animal id): 175 | ≤ 8
isolate (source animal id): 176 | ≤ 8
isolate (source animal id): 177 | ≤ 8
isolate (source animal id): 178 | ≤ 8
isolate (source animal id): 179 | ≤ 8
isolate (source animal id): 182 | ≤ 8
isolate (source animal id): 192 | ≤ 8
isolate (source animal id): 193 | ≤ 8
isolate (source animal id): 195 | ≤ 8
isolate (source animal id): 196 | ≤ 8
isolate (source animal id): 197 | ≤ 8
isolate (source animal id): 198 | 16 (≈ 19.8 µM)
isolate (source animal id): 199 | ≤ 8
isolate (source animal id): 200 | ≤ 8
isolate (source animal id): 201 | ≤ 8
isolate (source animal id): 203 | ≤ 8
isolate (source animal id): 204 | ≤ 8
isolate (source animal id): 205 | 16 (≈ 19.8 µM)
isolate (source animal id): 206 | ≤ 8
isolate (source animal id): 207 | ≤ 8
isolate (source animal id): 208 | ≤ 8
isolate (source animal id): 209 | ≤ 8
isolate (source animal id): 210 | 16 (≈ 19.8 µM)
isolate (source animal id): 213 | ≤ 8
isolate (source animal id): 216 | ≤ 8
isolate (source animal id): 223 | 16 (≈ 19.8 µM)
isolate (source animal id): 227 | ≤ 8
isolate (source animal id): 229 | ≤ 8
isolate (source animal id): 233 | ≤ 8
isolate (source animal id): 234 | ≤ 8
isolate (source animal id): 237 | 16 (≈ 19.8 µM)
isolate (source animal id): 241 | 16 (≈ 19.8 µM)
isolate (source animal id): 245 | ≤ 8
isolate (source animal id): 247 | 16 (≈ 19.8 µM)
isolate (source animal id): 250 | ≤ 8
isolate (source animal id): 254 | 32 (≈ 39.7 µM)
isolate (source animal id): 255 | 16 (≈ 19.8 µM)
isolate (source animal id): 258 | ≤ 8
isolate (source animal id): 261 | ≤ 8
isolate (source animal id): 262 | 16 (≈ 19.8 µM)
isolate (source animal id): 269 | ≤ 8
isolate (source animal id): 270 | ≤ 8
isolate (source animal id): 274 | ≤ 8
isolate (source animal id): 275 | ≤ 8
isolate (source animal id): 276 | 16 (≈ 19.8 µM)
isolate (source animal id): 277 | ≤ 8
isolate (source animal id): 278 | ≤ 8
isolate (source animal id): 279 | ≤ 8
isolate (source animal id): 280 | > 64
isolate (source animal id): 284 | ≤ 8
isolate (source animal id): 285 | 16 (≈ 19.8 µM)
isolate (source animal id): 287 | 16 (≈ 19.8 µM)
isolate (source animal id): 290 | ≤ 8
isolate (source animal id): 294 | ≤ 8
isolate (source animal id): 295 | 16 (≈ 19.8 µM)
isolate (source animal id): 296 | ≤ 8
isolate (source animal id): 307 | ≤ 8
isolate (source animal id): 310 | 16 (≈ 19.8 µM)
isolate (source animal id): 311 | 16 (≈ 19.8 µM)
isolate (source animal id): 312 | ≤ 8
isolate (source animal id): 313 | 16 (≈ 19.8 µM)
isolate (source animal id): 315 | 16 (≈ 19.8 µM)
isolate (source animal id): 316 | 16 (≈ 19.8 µM)
